Test results as given in patent US20210228653A1, “BACILLUS LICHENIFORMIS STRAIN WITH PROBIOTIC ACTIVITY” (EVONIK DEGUSSA GMBH, priority 2016, published 2021).
Where “and” joins values, the source holds several entries; their conditions need not be identical. Equal values may be shown once.

Parameters: species or system broiler chickens (Vencobb 400)
Conditions: in vivo

Substance: Bacitracin Methylene Disalicyclate [BMD]
- FCR (feed conversion ratio, feed to gain): 1.42 g/g and 1.74 g/g
- FCR compared to the control (in words): reduced
- body weight compared to the control (in words): improved the body weight
